What all share (format): cell-based
Experiment [1] relates to Salmonella. Nature of the experiment: MIC by liquid micro-dilution method. The arrangement: key: “+” means bacterial growth; “−” means no bacterial growth. The protocol: (§1) The minimum inhibitory concentration (MIC) of the extract was determined by liquid microdilution method.
(§2) Twenty-four hours before the experiment, the test strains preserved in low temperature were taken out and placed at room temperature. A small amount of bacterial liquid was drawn with a pipette, inoculated into the sterilized and cooled growth medium, and placed in a 35° C. incubator for 24 hours. A pipette was used to transfer a small amount of activated bacterial colonies to a sterilized dry test tube, diluted with medium to a turbidity similar to that of a 0.5 McFarland turbidimetric tube (1.5×10^8 CFU/mL), and then diluted with medium by […], so that the bacterial suspension concentration reaches 1.0×10^6 CFU/mL (diluted twice before being added to the wells, and the final bacterial concentration in the system being 5×10^5 CFU/mL) for MIC measurement.
(§3) In a sterile 96-well flat-bottom microculture plate, 100 μL of […] positive control solution was added to the No. […] 2-11 well, respectively. No. 12 well was solvent.
(§4) The plate was incubated in a 30° C. incubator for 24 hours, the experimental results were observed, and the minimum inhibitory concentration (MIC) values were determined. […] The difference was counted as “≤[…].” The above experiments were performed in parallel for 3 times. When the MIC value could be accurately repeated or only differed by one concentration, it was accepted. The higher concentration was used as the MIC value. When the MIC value differed by more than two concentrations, the experiment was repeated until it met the until requested.
(In broth dilution the organism is exposed to a series of concentrations in liquid medium.)

For experiment [2], the system named is Salmonella. The experiment is described as follows: In vitro antibacterial activity of combination of extract and antibacterial drug (MIC, FIC).
In experiment [3] the test system is Multidrug-resistant Staphylococcus aureus 222. The experiment is described as follows: MIC by liquid micro-dilution method. Also on record: key: “+” means bacterial growth; “−” means no bacterial growth. As to the method: as §1, §2, §3, §4
Experiment [4] shares this test system. Nature of the experiment: In vitro antibacterial activity of combination of extract and antibacterial drug (MIC, FIC).
The test system of experiment [5] is Escherichia coli. The experiment is described as follows: MIC by liquid micro-dilution method. Also on record: key: “+” means bacterial growth; “−” means no bacterial growth. The protocol:
as §1, §2, §3, §4

Experiment [6] has as its system Multidrug-resistant Pseudomonas aeruginosa 174. Nature of the experiment: MIC by liquid micro-dilution method. The arrangement: key: “+” means bacterial growth; “−” means no bacterial growth. As to the method:
as §1, §2, §3, §4

The test system is the same in experiment [7]. Nature of the experiment: In vitro antibacterial activity of combination of extract and antibacterial drug (MIC, FIC).
Experiment [8] deals with Escherichia coli. Described as above.
Where [9] appears, read: Table 4, positive control 128 μg/mL (Table 3).
Where [10] appears, read: Table 6, positive control 128 μg/mL (Table 3).
Setting [11] is: Table 7, positive control 128 μg/mL (Table 3).
Setting [12] is: Table 8, positive control 128 μg/mL (Table 3).
Setting [13] is: drug MIC in combination with the Paris Polyphylla Saponin Extract.

Counter-ions that a name gives are not always drawn.

The values below come from patent US20230128907A1, “PARIS POLYPHYLLA SAPONIN EXTRACT WITH ACTIVITY AGAINST MULTIDRUG-RESISTANT BACTERIA AND PREPARATION AND USE THEREOF” (XI'AN KANGYUANSHENG BIOMEDICAL TECHNOLOGY CO., LTD., priority 2021, published 2023).

`C[C@H]1COc2c(N3CCN(C)CC3)c(F)cc3c(=O)c(C(=O)O)cn1c23` [Levofloxacin hydrochloride]: the bacterial growth entry in experiment [1] (setting [9]), in experiment [1] (setting [10]), in experiment [1] (setting [11]) and in experiment [1] (setting [12]) was “−” throughout. In experiment [2] (setting [13]), the “Combination Treatment MIC Combination” value stood at 2 µg/mL. In experiment [2] (drug alone), the “Combination Treatment MIC Single” value amounted to 4 µg/mL.

On to `Cc1nnc(SCC2=C(C(=O)O)N3C(=O)[C@@H](NC(=O)Cn4cnnn4)[C@H]3SC2)s1` [Cefazolin sodium], for which the bacterial growth entry in experiment [3] (setting [9]), in experiment [3] (setting [10]) and in experiment [3] (setting [12]) was “−” in each case. Also, the “Combination Treatment MIC Combination” value in experiment [4] (setting [13]) came out at 16 µg/mL. Also, the “Combination Treatment MIC Single” value in experiment [4] (drug alone) was found to be 128 µg/mL.

For the compound `C[C@@H]1CC[C@@]2(OC1)O[C@H]1C[C@H]3[C@@H]4CC=C5C[C@@H](O[C@@H]6O[C@H](CO)[C@@H](O)[C@H](O)[C@H]6O[C@@H]6O[C@@H](C)[C@H](O)[C@@H](O)[C@H]6O)CC[C@]5(C)[C@H]4CC[C@]3(C)[C@@]1(O)[C@@H]2C` [Polyphyllin VI], the bacterial growth entry in experiment [5] (Table 7, Conc. 0.25 μg/mL) is given as “+”; in experiment [5] (Table 7, Conc. 0.5 μg/mL), “+”; in experiment [5] (Table 7, Conc. 1 μg/mL), “+”; in experiment [5] (Table 7, Conc. 2 μg/mL), “+”; in experiment [5] (Table 7, Conc. 4 μg/mL) it was “+”; in experiment [5] (Table 7, Conc. 8 μg/mL), “+”. Further, the bacterial growth entry in experiment [5] (Table 7, Conc. 16 μg/mL) is “+”; in experiment [5] (Table 7, Conc. 32 μg/mL), “+”; in experiment [5] (Table 7, Conc. 64 μg/mL), “+”; in experiment [5] (Table 7, Conc. 128 μg/mL), “+”; in experiment [1] (Table 7, Conc. 0.25 μg/mL), “+”; in experiment [1] (Table 7, Conc. 0.5 μg/mL), “+”. Further, the bacterial growth entry in experiment [1] (Table 7, Conc. 1 μg/mL) is listed as “+”; in experiment [1] (Table 7, Conc. 2 μg/mL), “+”; in experiment [1] (Table 7, Conc. 4 μg/mL), “+”; in experiment [1] (Table 7, Conc. 8 μg/mL), “+”; in experiment [1] (Table 7, Conc. 16 μg/mL), “+”; in experiment [1] (Table 7, Conc. 32 μg/mL), “+”. In addition, the bacterial growth result in experiment [1] (Table 7, Conc. 64 μg/mL) is reported as “+”; in experiment [1] (Table 7, Conc. 128 μg/mL), “+”.

On to Gentamicin sulfate, for which the bacterial growth result in experiment [6] (setting [9]) and in experiment [6] (setting [12]) was “−” in each case. Moreover, the “Combination Treatment MIC Combination” value in experiment [7] (setting [13]) turned out to be 0.125 µg/mL. In addition, in experiment [7] (drug alone), the “Combination Treatment MIC Single” value amounted to 0.125 µg/mL.

With `CC1CCC2(OC1)OC1CC3C4CC=C5CC(OC6OC(CO)C(OC7OC(C)C(OC8OC(C)C(O)C(O)C8O)C(O)C7O)C(O)C6OC6OC(C)C(O)C(O)C6O)CCC5(C)C4CCC3(C)C1(O)C2C` (stereo not drawn) [Polyphyllin VII], the bacterial growth result in experiment [5] (Table 8, 0.25 μg/mL) is “+”; in experiment [5] (Table 8, 0.5 μg/mL), “+”; in experiment [5] (Table 8, 1 μg/mL) it was “+”; in experiment [5] (Table 8, 2 μg/mL) it was “+”; in experiment [5] (Table 8, 4 μg/mL), “+”; in experiment [5] (Table 8, 8 μg/mL), “+”. The bacterial growth entry in experiment [5] (Table 8, 16 μg/mL) was “+”; in experiment [5] (Table 8, 32 μg/mL), “+”; in experiment [5] (Table 8, 64 μg/mL), “+”; in experiment [5] (Table 8, 128 μg/mL), “+”; in experiment [5] (Table 8, 256 μg/mL), “+”; in experiment [5] (Table 8, 512 μg/mL) it was “+”. Further, the bacterial growth result in experiment [5] (Table 8, 1024 μg/mL) is on record as “+”; in experiment [6] (Table 8, 0.25 μg/mL), “+”; in experiment [6] (Table 8, 0.5 μg/mL), “+”; in experiment [6] (Table 8, 1 μg/mL), “+”; in experiment [6] (Table 8, 2 μg/mL), “+”; in experiment [6] (Table 8, 4 μg/mL), “+”. The bacterial growth result in experiment [6] (Table 8, 8 μg/mL) is reported as “+”; in experiment [6] (Table 8, 16 μg/mL) it was “+”; in experiment [6] (Table 8, 32 μg/mL) it was “+”; in experiment [6] (Table 8, 64 μg/mL) it was “+”; in experiment [6] (Table 8, 128 μg/mL), “+”; in experiment [6] (Table 8, 256 μg/mL) it was “+”. For the same compound, the bacterial growth entry in experiment [6] (Table 8, 512 μg/mL) is given as “+”; in experiment [6] (Table 8, 1024 μg/mL), “+”; in experiment [3] (Table 8, 0.25 μg/mL), “+”; in experiment [3] (Table 8, 0.5 μg/mL) it was “+”; in experiment [3] (Table 8, 1 μg/mL), “+”; in experiment [3] (Table 8, 2 μg/mL), “+”. The bacterial growth result in experiment [3] (Table 8, 4 μg/mL) is “+”; in experiment [3] (Table 8, 8 μg/mL), “+”; in experiment [3] (Table 8, 16 μg/mL), “+”; in experiment [3] (Table 8, 32 μg/mL), “+”; in experiment [3] (Table 8, 64 μg/mL), “+”; in experiment [3] (Table 8, 128 μg/mL), “+”. In addition, the bacterial growth entry was “+” in experiment [3] (Table 8, 256 μg/mL); “+” in experiment [3] (Table 8, 512 μg/mL); “+” in experiment [3] (Table 8, 1024 μg/mL); “+” in experiment [1] (Table 8, 0.25 μg/mL); “+” in experiment [1] (Table 8, 0.5 μg/mL); “+” in experiment [1] (Table 8, 1 μg/mL). Further, the bacterial growth entry in experiment [1] (Table 8, 2 μg/mL) is listed as “+”; in experiment [1] (Table 8, 4 μg/mL), “+”; in experiment [1] (Table 8, 8 μg/mL), “+”; in experiment [1] (Table 8, 16 μg/mL) it was “+”; in experiment [1] (Table 8, 32 μg/mL) it was “+”; in experiment [1] (Table 8, 64 μg/mL), “+”. Further, the bacterial growth result is listed as “+” in experiment [1] (Table 8, 128 μg/mL); “+” in experiment [1] (Table 8, 256 μg/mL); “+” in experiment [1] (Table 8, 512 μg/mL); “+” in experiment [1] (Table 8, 1024 μg/mL).

Regarding `CO/N=C(\C(=O)N[C@@H]1C(=O)N2C(C(=O)O)=C(CSc3nc(=O)c(=O)[nH]n3C)CS[C@H]12)c1csc(N)n1` [Ceftriaxone sodium], the bacterial growth result in experiment [5] (setting [9]), in experiment [5] (setting [10]), in experiment [5] (setting [11]) and in experiment [5] (setting [12]) was “−” each time. In addition, the “Combination Treatment MIC Combination” value in experiment [8] (setting [13]) is 0.5 µg/mL. In addition, in experiment [8] (drug alone), the “Combination Treatment MIC Single” value amounted to 2 µg/mL.

With `CC1CCC2(OC1)OC1CC3C4CC=C5CC(OC6OC(CO)C(OC7OC(C)C(OC8OC(C)C(O)C(O)C8O)C(O)C7O)C(O)C6OC6OC(C)C(O)C(O)C6O)CCC5(C)C4CCC3(C)C1C2C` (stereo not drawn) [Polyphyllin II], the bacterial growth entry was “+” in experiment [5] (Table 6, 0.25 μg/mL); “+” in experiment [5] (Table 6, 0.5 μg/mL); “+” in experiment [5] (Table 6, 1 μg/mL); “+” in experiment [5] (Table 6, 2 μg/mL); “+” in experiment [5] (Table 6, 4 μg/mL); “+” in experiment [5] (Table 6, 8 μg/mL). Besides, the bacterial growth result was “+” in experiment [5] (Table 6, 16 μg/mL); “+” in experiment [5] (Table 6, 32 μg/mL); “+” in experiment [5] (Table 6, 64 μg/mL); “+” in experiment [5] (Table 6, 128 μg/mL); “+” in experiment [5] (Table 6, 256 μg/mL); “+” in experiment [5] (Table 6, 512 μg/mL). Further, the bacterial growth result is “+” in experiment [5] (Table 6, 1024 μg/mL); “+” in experiment [3] (Table 6, 0.25 μg/mL); “+” in experiment [3] (Table 6, 0.5 μg/mL); “+” in experiment [3] (Table 6, 1 μg/mL); “+” in experiment [3] (Table 6, 2 μg/mL); “+” in experiment [3] (Table 6, 4 μg/mL). Further, the bacterial growth entry is “+” in experiment [3] (Table 6, 8 μg/mL); “+” in experiment [3] (Table 6, 16 μg/mL); “+” in experiment [3] (Table 6, 32 μg/mL); “+” in experiment [3] (Table 6, 64 μg/mL); “+” in experiment [3] (Table 6, 128 μg/mL); “+” in experiment [3] (Table 6, 256 μg/mL). In addition, the bacterial growth entry is “+” in experiment [3] (Table 6, 512 μg/mL); “+” in experiment [3] (Table 6, 1024 μg/mL); “+” in experiment [1] (Table 6, 0.25 μg/mL); “+” in experiment [1] (Table 6, 0.5 μg/mL); “+” in experiment [1] (Table 6, 1 μg/mL); “+” in experiment [1] (Table 6, 2 μg/mL). In addition, the bacterial growth result in experiment [1] (Table 6, 4 μg/mL) is “+”; in experiment [1] (Table 6, 8 μg/mL) it was “+”; in experiment [1] (Table 6, 16 μg/mL) it was “+”; in experiment [1] (Table 6, 32 μg/mL), “+”; in experiment [1] (Table 6, 64 μg/mL), “+”; in experiment [1] (Table 6, 128 μg/mL), “+”. Further, the bacterial growth entry in experiment [1] (Table 6, 256 μg/mL) is recorded as “+”; in experiment [1] (Table 6, 512 μg/mL), “+”; in experiment [1] (Table 6, 1024 μg/mL) it was “+”.
